Source: the NIST ThermoML archive (doi:10.1021/je0301040)

Assay: xn = mol fraction of the nth substance listed

FC(Cl)(Cl)Cl [trichlorofluoromethane] + FC(F)Cl
Conditions | mass density [kg/m3]
230 K, 25860 kPa, Liquid, Pycnometric method, x1 = 0.8336 | 1641.63
230.01 K, 668.5 kPa, Liquid, Pycnometric method, x1 = 0.8336 | 1604.47
230.01 K, 1004 kPa, Liquid, Pycnometric method, x1 = 0.8336 | 1605.02
230.01 K, 2033.3 kPa, Liquid, Pycnometric method, x1 = 0.8336 | 1606.97
230.01 K, 2374.4 kPa, Liquid, Pycnometric method, x1 = 0.8336 | 1607.47
230.01 K, 2689.9 kPa, Liquid, Pycnometric method, x1 = 0.8336 | 1608.01
230.01 K, 3067 kPa, Liquid, Pycnometric method, x1 = 0.8336 | 1608.63
230.01 K, 3637.3 kPa, Liquid, Pycnometric method, x1 = 0.8336 | 1609.58
230.01 K, 12707 kPa, Liquid, Pycnometric method, x1 = 0.8336 | 1623.4
230.01 K, 65252 kPa, Liquid, Pycnometric method, x1 = 0.8336 | 1686.03
230.02 K, 1691.3 kPa, Liquid, Pycnometric method, x1 = 0.8336 | 1606.39
230.02 K, 38513 kPa, Liquid, Pycnometric method, x1 = 0.8336 | 1657.76
230.02 K, 51629 kPa, Liquid, Pycnometric method, x1 = 0.8336 | 1672.95
232.01 K, 344.5 kPa, Liquid, isochoric method, x1 = 0.832 | 1585.93
232.01 K, 367.9 kPa, Liquid, isochoric method, x1 = 0.832 | 1585.93
233.01 K, 1630.1 kPa, Liquid, isochoric method, x1 = 0.832 | 1585.8
234.01 K, 2889.9 kPa, Liquid, isochoric method, x1 = 0.832 | 1585.67
245.01 K, 363.7 kPa, Liquid, isochoric method, x1 = 0.832 | 1556.16
246.5 K, 2106.6 kPa, Liquid, isochoric method, x1 = 0.832 | 1555.98
248 K, 3843.5 kPa, Liquid, isochoric method, x1 = 0.832 | 1555.8
248 K, 3865.5 kPa, Liquid, isochoric method, x1 = 0.832 | 1555.8
248.01 K, 3870.3 kPa, Liquid, isochoric method, x1 = 0.832 | 1555.8
249 K, 4990.8 kPa, Liquid, isochoric method, x1 = 0.832 | 1555.68
264.5 K, 1262.1 kPa, Liquid, isochoric method, x1 = 0.832 | 1513.38
266.5 K, 3302.5 kPa, Liquid, isochoric method, x1 = 0.832 | 1513.15
268 K, 4830.1 kPa, Liquid, isochoric method, x1 = 0.832 | 1512.98
268 K, 4846.4 kPa, Liquid, isochoric method, x1 = 0.832 | 1512.98
269.99 K, 2096.8 kPa, Liquid, Pycnometric method, x1 = 0.8336 | 1502.82
269.99 K, 21561 kPa, Liquid, Pycnometric method, x1 = 0.8336 | 1541.21
269.99 K, 41933 kPa, Liquid, Pycnometric method, x1 = 0.8336 | 1573.88
270 K, 378 kPa, Liquid, Pycnometric method, x1 = 0.8336 | 1498.95
270 K, 696 kPa, Liquid, Pycnometric method, x1 = 0.8336 | 1499.67
270 K, 1081 kPa, Liquid, Pycnometric method, x1 = 0.8336 | 1500.54
270 K, 1383.8 kPa, Liquid, Pycnometric method, x1 = 0.8336 | 1501.23
270 K, 1742 kPa, Liquid, Pycnometric method, x1 = 0.8336 | 1502.02
270 K, 2410 kPa, Liquid, Pycnometric method, x1 = 0.8336 | 1503.54
270 K, 2708.1 kPa, Liquid, Pycnometric method, x1 = 0.8336 | 1504.16
270 K, 3130 kPa, Liquid, Pycnometric method, x1 = 0.8336 | 1505.05
270 K, 3854.5 kPa, Liquid, Pycnometric method, x1 = 0.8336 | 1506.62
270 K, 7625.3 kPa, Liquid, Pycnometric method, x1 = 0.8336 | 1514.59
270 K, 14726 kPa, Liquid, Pycnometric method, x1 = 0.8336 | 1528.68
270 K, 27467 kPa, Liquid, Pycnometric method, x1 = 0.8336 | 1551.32
270 K, 35271 kPa, Liquid, Pycnometric method, x1 = 0.8336 | 1563.81
270 K, 48894 kPa, Liquid, Pycnometric method, x1 = 0.8336 | 1583.8
270 K, 55535 kPa, Liquid, Pycnometric method, x1 = 0.8336 | 1592.86
270 K, 62211 kPa, Liquid, Pycnometric method, x1 = 0.8336 | 1601.52
288 K, 932.5 kPa, Liquid, isochoric method, x1 = 0.832 | 1464.29
290 K, 2670 kPa, Liquid, isochoric method, x1 = 0.832 | 1464.09
293 K, 5258.3 kPa, Liquid, isochoric method, x1 = 0.832 | 1463.78
293 K, 5259.5 kPa, Liquid, isochoric method, x1 = 0.832 | 1463.78
298.14 K, 1069.1 kPa, Liquid, Pycnometric method, x1 = 0.8336 | 1439.09
298.14 K, 1772.4 kPa, Liquid, Pycnometric method, x1 = 0.8336 | 1441.18
298.14 K, 2113.1 kPa, Liquid, Pycnometric method, x1 = 0.8336 | 1442.22
298.14 K, 2728.2 kPa, Liquid, Pycnometric method, x1 = 0.8336 | 1444.75
298.14 K, 3032.4 kPa, Liquid, Pycnometric method, x1 = 0.8336 | 1445.59
298.14 K, 21180 kPa, Liquid, Pycnometric method, x1 = 0.8336 | 1490.62
298.14 K, 49069 kPa, Liquid, Pycnometric method, x1 = 0.8336 | 1542.62
298.14 K, 63135 kPa, Liquid, Pycnometric method, x1 = 0.8336 | 1564.13
298.15 K, 390.2 kPa, Liquid, Pycnometric method, x1 = 0.8336 | 1436.97
298.15 K, 717.7 kPa, Liquid, Pycnometric method, x1 = 0.8336 | 1438.05
298.15 K, 1383.5 kPa, Liquid, Pycnometric method, x1 = 0.8336 | 1440.04
298.15 K, 2381.3 kPa, Liquid, Pycnometric method, x1 = 0.8336 | 1443.01
298.15 K, 2409.4 kPa, Liquid, Pycnometric method, x1 = 0.8336 | 1443.8
298.15 K, 3541.1 kPa, Liquid, Pycnometric method, x1 = 0.8336 | 1447.03
298.15 K, 7060.4 kPa, Liquid, Pycnometric method, x1 = 0.8336 | 1456.68
298.15 K, 14256 kPa, Liquid, Pycnometric method, x1 = 0.8336 | 1474.84
298.15 K, 27634 kPa, Liquid, Pycnometric method, x1 = 0.8336 | 1504
298.15 K, 35295 kPa, Liquid, Pycnometric method, x1 = 0.8336 | 1518.86
298.15 K, 42224 kPa, Liquid, Pycnometric method, x1 = 0.8336 | 1531.13
298.15 K, 56475 kPa, Liquid, Pycnometric method, x1 = 0.8336 | 1554.44
298.15 K, 67870 kPa, Liquid, Pycnometric method, x1 = 0.8336 | 1570.81
305.99 K, 2209.4 kPa, Liquid, isochoric method, x1 = 0.832 | 1419.96
305.99 K, 2209.7 kPa, Liquid, isochoric method, x1 = 0.832 | 1419.96
308.99 K, 4508.6 kPa, Liquid, isochoric method, x1 = 0.832 | 1419.67
311.99 K, 6798.4 kPa, Liquid, isochoric method, x1 = 0.832 | 1419.39
311.99 K, 6800.1 kPa, Liquid, isochoric method, x1 = 0.832 | 1419.39
319.98 K, 1419.4 kPa, Liquid, Pycnometric method, x1 = 0.8336 | 1381.39
319.98 K, 2419.9 kPa, Liquid, Pycnometric method, x1 = 0.8336 | 1385.12
319.99 K, 690.7 kPa, Liquid, Pycnometric method, x1 = 0.8336 | 1378.66
319.99 K, 1087.6 kPa, Liquid, Pycnometric method, x1 = 0.8336 | 1380.16
319.99 K, 1721.1 kPa, Liquid, Pycnometric method, x1 = 0.8336 | 1382.53
319.99 K, 2054.4 kPa, Liquid, Pycnometric method, x1 = 0.8336 | 1383.74
319.99 K, 2726 kPa, Liquid, Pycnometric method, x1 = 0.8336 | 1386.19
319.99 K, 3165.8 kPa, Liquid, Pycnometric method, x1 = 0.8336 | 1387.81
319.99 K, 3805.2 kPa, Liquid, Pycnometric method, x1 = 0.8336 | 1390.08
319.99 K, 7368.4 kPa, Liquid, Pycnometric method, x1 = 0.8336 | 1402.12
319.99 K, 13993 kPa, Liquid, Pycnometric method, x1 = 0.8336 | 1422.16
319.99 K, 20936 kPa, Liquid, Pycnometric method, x1 = 0.8336 | 1440.83
319.99 K, 27630 kPa, Liquid, Pycnometric method, x1 = 0.8336 | 1456.91
319.99 K, 35180 kPa, Liquid, Pycnometric method, x1 = 0.8336 | 1473.5
319.99 K, 42218 kPa, Liquid, Pycnometric method, x1 = 0.8336 | 1486.74
319.99 K, 49603 kPa, Liquid, Pycnometric method, x1 = 0.8336 | 1501.44
319.99 K, 56549 kPa, Liquid, Pycnometric method, x1 = 0.8336 | 1513.51
319.99 K, 62595 kPa, Liquid, Pycnometric method, x1 = 0.8336 | 1523.41
319.99 K, 66514 kPa, Liquid, Pycnometric method, x1 = 0.8336 | 1534.42
325.99 K, 1939.3 kPa, Liquid, isochoric method, x1 = 0.832 | 1362.85
328.99 K, 3911.9 kPa, Liquid, isochoric method, x1 = 0.832 | 1362.59
331.99 K, 5879.8 kPa, Liquid, isochoric method, x1 = 0.832 | 1362.33
331.99 K, 5890.5 kPa, Liquid, isochoric method, x1 = 0.832 | 1362.33
349.98 K, 353.7 kPa, Gas, isochoric method, x1 = 0.832 | 131.816
349.98 K, 1087.3 kPa, Liquid, Pycnometric method, x1 = 0.8336 | 1291.23
349.98 K, 1418.4 kPa, Liquid, Pycnometric method, x1 = 0.8336 | 1293.05
349.98 K, 1769.1 kPa, Liquid, Pycnometric method, x1 = 0.8336 | 1294.97
349.98 K, 2081.3 kPa, Liquid, Pycnometric method, x1 = 0.8336 | 1296.63
349.98 K, 2408.9 kPa, Liquid, Pycnometric method, x1 = 0.8336 | 1298.31
349.98 K, 2747.4 kPa, Liquid, Pycnometric method, x1 = 0.8336 | 1300.08
349.98 K, 3091.9 kPa, Liquid, Pycnometric method, x1 = 0.8336 | 1301.88
349.98 K, 7457.3 kPa, Liquid, Pycnometric method, x1 = 0.8336 | 1322.34
349.98 K, 14287 kPa, Liquid, Pycnometric method, x1 = 0.8336 | 1349.36
349.98 K, 20907 kPa, Liquid, Pycnometric method, x1 = 0.8336 | 1371.66
349.98 K, 35596 kPa, Liquid, Pycnometric method, x1 = 0.8336 | 1412.26
349.98 K, 42532 kPa, Liquid, Pycnometric method, x1 = 0.8336 | 1428.61
349.98 K, 49571 kPa, Liquid, Pycnometric method, x1 = 0.8336 | 1443.89
349.98 K, 56566 kPa, Liquid, Pycnometric method, x1 = 0.8336 | 1457.8
349.98 K, 62677 kPa, Liquid, Pycnometric method, x1 = 0.8336 | 1469.23
349.99 K, 3577.6 kPa, Liquid, Pycnometric method, x1 = 0.8336 | 1304.32
349.99 K, 27703 kPa, Liquid, Pycnometric method, x1 = 0.8336 | 1391.72
349.99 K, 68231 kPa, Liquid, Pycnometric method, x1 = 0.8336 | 1479.1
351.98 K, 3607.1 kPa, Liquid, isochoric method, x1 = 0.832 | 1298.78
354.98 K, 5239.3 kPa, Liquid, isochoric method, x1 = 0.832 | 1298.54
357.98 K, 6868 kPa, Liquid, isochoric method, x1 = 0.832 | 1298.31
357.98 K, 6868.5 kPa, Liquid, isochoric method, x1 = 0.832 | 1298.31
357.98 K, 6872.5 kPa, Liquid, isochoric method, x1 = 0.832 | 1298.31
357.98 K, 6876.5 kPa, Liquid, isochoric method, x1 = 0.832 | 1298.31
374.97 K, 140.1 kPa, Fluid (supercritical or subcritical phases), Burnett expansion method, x1 = 0.832 | 5.9076
374.97 K, 155.55 kPa, Fluid (supercritical or subcritical phases), Burnett expansion method, x1 = 0.832 | 6.5788
374.97 K, 572.06 kPa, Fluid (supercritical or subcritical phases), Burnett expansion method, x1 = 0.832 | 25.934
374.97 K, 705.75 kPa, Fluid (supercritical or subcritical phases), Burnett expansion method, x1 = 0.832 | 32.8139
374.97 K, 712.23 kPa, Fluid (supercritical or subcritical phases), Burnett expansion method, x1 = 0.832 | 33.1519
374.97 K, 775.25 kPa, Fluid (supercritical or subcritical phases), Burnett expansion method, x1 = 0.832 | 36.5414
374.97 K, 2140.4 kPa, Liquid, Pycnometric method, x1 = 0.8336 | 1209.34
374.97 K, 2454.5 kPa, Liquid, Pycnometric method, x1 = 0.8336 | 1211.8
374.97 K, 2781.1 kPa, Liquid, Pycnometric method, x1 = 0.8336 | 1214.3
